Measurements published in patent publication US20060004026A1, “Compositions for ameliorating attention-deficient/hyperactivity disorder” (priority 2001, published 2006).

Columns and labels:
[1] = tested on: patients diagnosed attention-deficit hyperactivity disorder; test: administration to patients diagnosed attention-deficit hyperactivity disorder; type: in vivo, human
Text: The “attention-deficit hyperactivity disorder,” as referred to herein, to which the composition of the present invention is applied is a symptom judged on the basis of a diagnostic method for ADHD, as defined in DSM-IV Seishin Shogai no Shindan•Tokei Manyuaru (Diagnosis and Statistic Manuals for DSM-IV Mental Disorders) (published by Igakushoin, 1996). Concretely, an individual with ADHD meets the following criteria.
In addition, the diagnosis is made under the conditions that some of these symptoms have caused problems before reaching 7-years old, and that any problems take place at present in two or more different locations (examples: school and home). Also, the judgment is made only in the case where serious disorders are recognized in social life, schoolwork and vocational work, and any of the symptoms are not caused by other diseases.
The exhibition of the action for mitigating or alleviating attention-deficit hyperactivity disorder by theanine can be evaluated by a clinical test in which theanine is administered to a patient who meets the above-mentioned [Criteria for Diagnosis], and any ameliorative effects on attention-deficit hyperactivity disorder are observed, as compared to that before the administration of theanine.
Five patients who were diagnosed attention-deficit hyperactivity disorder by doctors were administered with a composition containing L-theanine. The composition was prepared so that L-theanine was mixed with crystalline cellulose, sucrose fatty acid ester, reducing maltose, silicon dioxide, lactose and aspartame so as to have the content of L-theanine of 20% by weight, and tableting the mixture to prepare a tablet.

mouse = test: acute toxic test using a mouse; type: in vivo; details: oral administration at 5 g/kg
Text: The theanine used in the present invention has high safety. […] Also, especially L-theanine is known as a main component of umami (tastiness) of the green tea, and is also used as a food additive giving umami, without the limitation of its added amount under the regulation for food hygiene. Moreover, contrary to the conventional drugs, since there is no side effect by theanine at all, the amelioration of attention-deficit hyperactivity disorder can be safely and effectively achieved according to the composition of the present invention.

What does the source list for CCNC(=O)CC[C@H](N)C(=O)O [L-theanine]?
effect judged by the doctor in charge ([1]; Patient 1, 50 mg/day over 8 weeks): effective; ADHD symptoms after the termination of the administration ([1]; Patient 1, 50 mg/day over 8 weeks, tablet with 20% by weight L-theanine): substantially disappeared; ADHD symptoms after the termination of the administration ([1]; Patient 2 (person one), 200 mg/day over 10 weeks): substantially disappeared; effect judged by the doctor in charge ([1]; Patient 2, 200 mg/day over 10 weeks): effective; ADHD symptoms ([1]; Patient 3, 100 mg/day together with Ritalin over 1 week): substantially disappeared; behaviour at school on the day of administration ([1]; Patient 4, 200 mg/day only once before school): could attend the classes without any problems; state of symptoms in the following day (maintenance by a single dosage) ([1]; Patient 4, 200 mg/day only once, following day): returned to the original state of symptoms; ADHD symptoms after the termination of the administration ([1]; Patient 5, 60 mg/day over 1 week): remarkably ameliorated

How did the “ADHD symptoms during the administration” value ([1]; Patient 2, earlier treatment with Ritalin) turn out when COC(=O)C(c1ccccc1)C1CCCCN1 (stereo not drawn) [Ritalin, methylphenidate, reference compound] was run?
The value was “stabilized”.

What about the side effects ([1]; Patient 2, earlier treatment with Ritalin, administration was stopped) of the same compound?
The side effects was “serious”.

CCNC(=O)CC[C@H](N)C(=O)O [theanine, γ-glutamylethylamide] was tested. Which “abnormalities in the general states, weight and the like” value (mouse) did it give?
The value was “no abnormalities”.

What about the cases of death (mouse) of the same compound?
Its cases of death is “no cases of death”.
